PMC2877487 (Bioorganic & medicinal chemistry letters, 2009)
Like-named read-outs stand apart in the source and are kept apart here.

What was measured:
[1] = Stability by HPLC peak area decrease, first order decay half-life; type: physicochemical; conditions: culture media, First order decay half-life (t1/2)
[2] = buffer; cited from earlier work

SMILES | half-life [1] | half-life [2]
COC[C@H]1OC(=O)c2coc3c2[C@@]1(C)C1=C(C3=O)[C@@H]2CCC(=O)[C@@]2(C)C[C@H]1OC(C)=O [Wm, wortmannin] | < 1 min | 57.8 h
C[C@@]12c3ccc4c(c3C(=O)c3occ(c31)C(=O)C[C@H]2OC(=O)CCC(=O)O)CCC4=O [SA-Dmv] | < 1 min | 
